Data set [1] concerns histamine-induced dermal vascular hyperpermeability. In words: Effect on histamine-induced dermal vascular hyperpermeability in guinea pigs. The format is in vivo, guinea pig. As to conditions: 3 mg/kg oral administration, 1 hour before intradermal histamine, male Hartley guinea pigs; for inhibition in vivo at 3 mg/kg: Cavia porcellus. How it is done:
Effect on Histamine-induced Dermal Vascular Hyperpermeability in Guinea Pigs
Male Hartley guinea pigs (weighing about 500 g) were used. […] After 30 minutes, the animal was hit on its head to make it unconscious, and cut at its neck to sacrifice by exsanguination. The dorsal skin was peeled and examined for the long and short diameters (mm) of each blue spot which were then multiplied to give a product, which was averaged to give a vascular permeability index. Each substance was suspended in 5% gum arabic solution, and given orally in the volume of 0.2 ml/100 g body weight 1 hour before histamine administration. Control animals received the same volume of 5% gum arabic solution. A % inhibition of this reaction was calculated according to [Equation 1].
% Inhibition of histamine-induced dermal vascular hyperpermeability=100×(1-vascular permeability index in treatment group/vascular permeability index in control group) [Equation 1]

In a further data set the test system is guinea-pig eosinophils. The data set is described as follows: Chemotaxis inhibition assay: LTB4-induced chemotaxis in guinea-pig eosinophils. In kind it is cell-based. As to conditions: test substance 1×10^−5 M, LTB4 10^−8 M, 2 hours; for inhibition at 10 µM: Cavia porcellus, Eosinophil. On the procedure:
1) Guinea-pig Eosinophil Preparation
Male Hartley guinea-pigs received 2 ml of equine serum (Bio-Whittaker, Inc) intraperitoneally once a week for successive 8 weeks. 48 hours after the last administration, 75 ml of physiological saline was injected into the peritoneal cavity, and the fluid was recovered and centrifuged at 400 G for 5 minutes. […] Erythrocytes in the isolated cell pellet, if any, were removed by hypotonic treatment (suspended in water for 30 seconds).
2) Chemotaxis Inhibition Assay
600 μl of LTB4 suspended in Hanks-Hepes-HSA (final concentration of 10^−8 M, Cascade Biochemical Ltd.) was placed in the lower compartment of a 24-well plate and kept at 37° C. for 30 minutes in a CO2 gas incubator. After mounting a Chemotaxicell (polycarbonate membrane, pore size 3 μm, thickness 10 μm), which served as an upper compartment, on the 24-well plate described above, 200 μl of eosinophil suspension (5×10^6 cells/ml), which had been incubated at 37° C. for 15 minutes in a thermostat chamber, was added to the upper compartment. After allowing to react for 2 hours in the CO2 gas incubator, the Chemotaxicell was removed, and 60 μl of 2% (w/v) EDTA solution in physiological saline was added to the lower compartment. After cooling on ice, the cells which underwent the chemotaxis into the lower compartment were counted using a blood cell counter (Coulter Counter (trade name)). In the procedure described above, the test substance was dissolved in N,N-dimethylformamide (DMF) and added to the upper and lower compartments at the final concentration of 10^−5 M.
% Chemotaxis inhibition=[…] [Equation 2]
The results are shown in [Table 2].

Here are results for 14 molecules from patent publication US6407116B1, “Nitrogenous fused-ring compounds, process for the preparation of the same, and drugs” (Takeda Chemical Industries, Inc., priority 1997, dated 2002).

SMILES strings stand for the structures. Where a name gives a salt, the structure may show the parent alone.

Broadly, the inhibition in vivo is how much of the control response was suppressed. A high value points to strong suppression. The melting point is the temperature of the solid-liquid transition. The molecule `CCOC(=O)CCCCCn1c(=O)c2ccccc2n(CCCCN2CCC(OC(c3ccccc3)c3ccccc3)CC2)c1=O.Cl` [Example 95, Ethyl 2,4-dioxo-1-[4-(4-diphenylmethoxypiperidino)butyl]-1,2,3,4-tetrahydroquinazoline-3-hexanoate hydrochloride] returned a melting point of 149 to 151 °C. In addition, in data set [1], the inhibition in vivo at 3 mg/kg turned out to be 85%.
What is called inhibition is the share of the control response that was lost under treatment. As to `CCOC(=O)C(C)(C)n1c(=O)c2cc(F)ccc2n(CCCCN2CCC(OC(c3ccccc3)c3ccccc3)CC2)c1=O` [Example 33, Ethyl 2-[1-[4-(4-diphenylmethoxypiperidino)butyl]-2,4-dioxo-6-fluoro-1,2,3,4-tetrahydroquinazolin-3-yl]isobutyrate hydrochloride], the inhibition in vivo at 3 mg/kg in data set [1] was found to be 88%. Moreover, 10 µM produced 54% inhibition in the data set with guinea-pig eosinophils.
The molecule `CCOC(=O)CCCCn1c(=O)c2ccccc2n(CCCCN2CCC(OC(c3ccccc3)c3ccccc3)CC2)c1=O` [Example 94, Ethyl 2,4-dioxo-1-[4-(4-diphenylmethoxypiperidino)butyl]-1,2,3,4-tetrahydroquinazoline-3-valerate hydrochloride] returned an inhibition in vivo at 3 mg/kg in data set [1] of 83%.
Same read-out and setting: as for `CCOC(=O)CCn1c(=O)c2ccccc2n(CCCCN2CCC(OC(c3ccccc3)c3ccccc3)CC2)c1=O` [Example 17, Ethyl 2,4-dioxo-1-[4-(4-diphenylmethoxypiperidino)butyl]-1,2,3,4-tetrahydroquinazoline-3-propionate hydrochloride], the figure is 91%.
In the case of `Nc1ccc2c(c1)c(=O)[nH]c(=O)n2CCCCN1CCC(OC(c2ccccc2)c2ccccc2)CC1` [Example 40, 6-Amino-2,4-dioxo-1-[4-(4-diphenylmethoxypiperidino)butyl]-1,2,3,4-tetrahydroquinazoline], the melting point lay in the range of 131 to 133 °C. In addition, at 3 mg/kg the inhibition in vivo in data set [1] was 90%.
Turning to `O=c1[nH]c(=O)n(CCCCN2CCC(OC(c3ccccc3)c3ccccc3)CC2)c2ccccc12` [Example 2, 2,4-Dioxo-1-[4-(4-diphenylmethoxy-1-piperidinyl)butyl]-1,2,3,4-tetrahydroquinazoline], the melting point was in the range of 131 to 133 °C. In addition, testing at 3 mg/kg in data set [1] gave an inhibition in vivo of 88%. The same molecule came in with an inhibition at 10 µM in the data set on guinea-pig eosinophils of 91%.
Consider `O=C(O)CCn1c(=O)c2ccccc2n(CCCCN2CCC(OC(c3ccccc3)c3ccccc3)CC2)c1=O` [Example 52, 2,4-Dioxo-1-[4-(4-diphenylmethoxypiperidino)butyl]-1,2,3,4-tetrahydroquinazoline-3-propionic acid], for which the melting point fell in the range of 107 to 108 °C. In data set [1], this molecule came in with an inhibition in vivo at 3 mg/kg of 88%.
As for `N#CCCCCn1c(=O)c2ccccc2n(CCCCN2CCC(OC(c3ccccc3)c3ccccc3)CC2)c1=O` [Example 93, 2,4-Dioxo-1-[4-(4-diphenylmethoxypiperidino)butyl]-1,2,3,4-tetrahydroquinazoline-3-valeronitrile], 3 mg/kg produced 84% inhibition in vivo in data set [1]. For the same molecule, testing at 10 µM in the data set with guinea-pig eosinophils gave an inhibition of 62%.
For the molecule `CCOC(=O)C(C)(C)n1c(=O)c2ccccc2n(CCCCN2CCC(OC(c3ccccc3)c3ccccc3)CC2)c1=O.Cl` [Example 27], the “Inhibition of histamine-induced dermal vascular hyperpermeability (%)” value in data set [1] stood at 94%. For the same molecule, the “Inhibition (%) of LTB4-induced chemotaxis” value in the data set on guinea-pig eosinophils is 52%.
The molecule `CC(C)(C(=O)O)n1c(=O)c2ccccc2n(CCCCN2CCC(OC(c3ccccc3)c3ccccc3)CC2)c1=O` [Example 120, 2-[2,4-Dioxo-1-[4-(4-diphenylmethoxypiperidino)butyl]-1,2,3,4-tetrahydroquinazolin-3-yl]isobutyric acid hydrochloride] yielded an inhibition in vivo at 3 mg/kg in data set [1] of 86%.
With `O=C(O)CCCCn1c(=O)c2ccccc2n(CCCCN2CCC(OC(c3ccccc3)c3ccccc3)CC2)c1=O` [Example 60, 2,4-Dioxo-1-[4-(4-diphenylmethoxypiperidino)butyl]-1,2,3,4-tetrahydroquinazoline-3-valeric acid], the inhibition in vivo at 3 mg/kg in data set [1] turned out to be 93%. At 10 µM the inhibition in the data set with guinea-pig eosinophils was 65%.
For `O=c1[nH]c(=O)n(CCCCN2CCC(OC(c3ccccc3)c3ccccc3)CC2)c2ccc([N+](=O)[O-])cc12` [Example 12, 2,4-Dioxo-1-[4-(4-diphenylmethoxypiperidino)butyl]-6-nitro-1,2,3,4-tetrahydroquinazoline], the melting point fell in the range of 211 to 213 °C. The molecule further had an inhibition in vivo at 3 mg/kg in data set [1] of 80%. This molecule also came in with an inhibition at 10 µM in the data set on guinea-pig eosinophils of 66%.
As to `COC(=O)C(C)(C)n1c(=O)c2ccccc2n(CCCCN2CCC(OC(c3ccccc3)c3ccccc3)CC2)c1=O.Cl` [Example 30], the “Inhibition of histamine-induced dermal vascular hyperpermeability (%)” value in data set [1] stood at 88%. Besides, in the data set with guinea-pig eosinophils, the “Inhibition (%) of LTB4-induced chemotaxis” value turned out to be 77%.
`O=C(O)CCCn1c(=O)c2ccccc2n(CCCCN2CCC(OC(c3ccccc3)c3ccccc3)CC2)c1=O` [Example 53, 2,4-Dioxo-1-[4-(4-diphenylmethoxypiperidino)butyl]-1,2,3,4-tetrahydroquinazoline-3-butyric acid]: the inhibition in vivo at 3 mg/kg in data set [1] was 90%.
